Measured values published in patent US20240092773A1, “DIHYDRO-CYCLOPENTA-ISOQUINOLINE SULFONAMIDES DERIVATIVES” (UCB Biopharma SRL, priority 2019, published 2024).

Biological target: IgE-Tb binding to soluble IgE receptor FcεR1α (Y131A mutation) (Homo sapiens, UniProt P01854, N146Q/N252Q)
Experiment: In vitro FRET assay: inhibition of binding of IgE-Tb to receptor FcεR1α-Y131A-AF488
Conditions: read-out: FRET IC50 range

Sequence of IgE-Tb binding to soluble IgE receptor FcεR1α (Y131A mutation) (P01854 whole entry N146Q/N252Q, looked up): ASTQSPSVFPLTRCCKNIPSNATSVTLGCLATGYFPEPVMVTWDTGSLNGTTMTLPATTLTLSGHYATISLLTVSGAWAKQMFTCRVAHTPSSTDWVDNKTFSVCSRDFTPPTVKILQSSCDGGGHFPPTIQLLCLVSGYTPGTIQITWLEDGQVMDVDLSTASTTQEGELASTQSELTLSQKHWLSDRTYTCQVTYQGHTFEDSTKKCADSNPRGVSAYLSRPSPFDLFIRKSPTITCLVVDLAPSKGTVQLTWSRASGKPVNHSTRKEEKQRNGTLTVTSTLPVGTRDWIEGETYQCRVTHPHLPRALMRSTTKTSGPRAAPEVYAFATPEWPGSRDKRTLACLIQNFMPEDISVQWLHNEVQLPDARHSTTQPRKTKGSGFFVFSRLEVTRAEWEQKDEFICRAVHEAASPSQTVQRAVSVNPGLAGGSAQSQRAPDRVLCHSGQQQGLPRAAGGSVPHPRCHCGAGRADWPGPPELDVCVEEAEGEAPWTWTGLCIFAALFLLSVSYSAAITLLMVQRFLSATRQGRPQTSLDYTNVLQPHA

Row | SMILES | IC50 [nM]
1 | CC(C)CNS(=O)(=O)c1cc2c(c3cnc(C4CC4)cc13)C(NC(=O)Nc1ccc(Br)cc1)CC2 (centres unmarked) [Example 45, 1-(4-bromophenyl)-3-[3-cyclopropyl-5-(2-methylpropylsulfamoyl)-8,9-dihydro-7H-cyclopenta[h]isoquinolin-9-yl]urea] | 100 to 2000
2 | CC(C)CNS(=O)(=O)c1cc2c(c3cnc(C4CC4)cc13)CCC2=O [Example 48, 3-cyclopropyl-N-(2-methylpropyl)-7-oxo-8,9-dihydrocyclopenta[h]isoquinoline-5-sulfonamide] | 100 to 2000
3 | COc1ccnc2c1ncn2C1CCc2c1cc(S(=O)(=O)NCC(C)(C)F)c1cc(C3CC3)ncc21 (centres unmarked) [Example 1, 3-cyclopropyl-N-(2-fluoro-2-methylpropyl)-7-(7-methoxyimidazo[4,5-b]pyridin-3-yl)-8,9-dihydro-7H-cyclopenta[h]isoquinoline-5-sulfonamide] | 100 to 2000
4 | Cc1cc(C(=O)NC2CN(C3CCc4c3cc(S(=O)(=O)NCC(C)(C)F)c3cc(C5CC5)ncc43)C2)n(C)n1 (centres unmarked) [Example 59, N-[1-[3-cyclopropyl-5-[(2-fluoro-2-methylpropyl)sulfamoyl]-8,9-dihydro-7H-cyclopenta[h]isoquinolin-7-yl]azetidin-3-yl]-2,5-dimethylpyrazole-3-carboxamide] | 100 to 2000
5 | CC(C)(F)CNS(=O)(=O)c1cc2c(c3cnc(C4CC4)cc13)CC[C@H]2C(=O)Nc1cccnc1 (single isomer, unassigned) [Example 37, (7R*)-3-cyclopropyl-5-[(2-fluoro-2-methylpropyl)sulfamoyl]-N-pyridin-3-yl-8,9-dihydro-7H-cyclopenta[h]isoquinoline-7-carboxamide] | 100 to 2000
6 | CC(C)(F)CNS(=O)(=O)c1cc2c(c3cnc(C4CC4)cc13)CC[C@H]2NC(=O)NCC1CC1 (single isomer, unassigned) [Example 8, 1-(cyclopropylmethyl)-3-[(7R*)-3-cyclopropyl-5-[(2-fluoro-2-methylpropyl)sulfamoyl]-8,9-dihydro-7H-cyclopenta[h]isoquinolin-7-yl]urea] | 100 to 2000
7 | CCn1cnnc1NC1CCc2cc(S(=O)(=O)NCC(C)C)c3cc(C4CC4)ncc3c21 (single isomer, unassigned) [Example 73, (9R*)-3-cyclopropyl-9-[(4-ethyl-1,2,4-triazol-3-yl)amino]-N-(2-methylpropyl)-8,9-dihydro-7H-cyclopenta[h]isoquinoline-5-sulfonamide] | 10 to 50
8 | CCNc1c(N[C@@H]2CCc3cc(S(=O)(=O)NCC(C)C)c4cc(C5CC5)ncc4c32)c(=O)c1=O (single isomer, unassigned) [Example 79, (9R*)-3-cyclopropyl-9-[[2-(ethylamino)-3,4-dioxocyclobuten-1-yl]amino]-N-(2-methylpropyl)-8,9-dihydro-7H-cyclopenta[h]isoquinoline-5-sulfonamide] | 10 to 50
9 | CC(C)CNS(=O)(=O)c1cc2c(c3cnc(C4CC4)cc13)C(NC(=S)Nc1cccnc1)CC2 (centres unmarked) [Example 74, 1-[3-cyclopropyl-5-(2-methylpropylsulfamoyl)-8,9-dihydro-7H-cyclopenta[h]isoquinolin-9-yl]-3-pyridin-3-ylthiourea] | 100 to 2000
10 | Cn1nnc(-c2ccc(NC3CCc4c3cc(S(=O)(=O)NCC(C)(C)F)c3cc(C5CC5)ncc43)cn2)n1 (centres unmarked) [Example 40, 3-cyclopropyl-N-(2-fluoro-2-methylpropyl)-7-[[6-(2-methyltetrazol-5-yl)pyridin-3-yl]amino]-8,9-dihydro-7H-cyclopenta[h]isoquinoline-5-sulfonamide] | 1 to 10
11 | CC(C)CNS(=O)(=O)c1cc2c(c3cnc(C4CC4)cc13)C(=O)CC2 [Example 63, 3-cyclopropyl-N-(2-methylpropyl)-9-oxo-7,8-dihydrocyclopenta[h]isoquinoline-5-sulfonamide] | 100 to 2000
12 | Cc1cc(Nc2nncn2[C@@H]2CCc3c2cc(S(=O)(=O)NCC(C)C)c2cc(C4CC4)ncc32)n(C)n1 (single isomer, unassigned) [Example 87, (7R*)-3-cyclopropyl-7-[3-[(2,5-dimethylpyrazol-3-yl)amino]-1,2,4-triazol-4-yl]-N-(2-methylpropyl)-8,9-dihydro-7H-cyclopenta[h]isoquinoline-5-sulfonamide] | 10 to 50
13 | CC(C)(F)CNS(=O)(=O)c1cc2c(c3cnc(C4CC4)cc13)C(Nc1cncnc1)CC2 (centres unmarked) [Example 28, 3-cyclopropyl-N-(2-fluoro-2-methylpropyl)-9-(pyrimidin-5-ylamino)-8,9-dihydro-7H-cyclopenta[h]isoquinoline-5-sulfonamide] | 50 to 100
14 | Cc1cc(-n2cnnc2NC2CCc3c2cc(S(=O)(=O)NCC(C)(C)F)c2cc(C4CC4)nnc32)n(C)n1 (centres unmarked) [Example 24, 3-cyclopropyl-7-[[4-(2,5-dimethylpyrazol-3-yl)-1,2,4-triazol-3-yl]amino]-N-(2-fluoro-2-methylpropyl)-8,9-dihydro-7H-cyclopenta[h]cinnoline-5-sulfonamide] | 10 to 50
15 | CC(C)CNS(=O)(=O)c1cc2c(c3cnc(C4CC4)cc13)C(NCc1cccnc1)CC2 (centres unmarked) [Example 14, 3-cyclopropyl-N-(2-methylpropyl)-9-(pyridin-3-ylmethylamino)-8,9-dihydro-7H-cyclopenta[h]isoquinoline-5-sulfonamide] | 100 to 2000
16 | CC(C)(F)CNS(=O)(=O)c1cc2c(c3cnc(C4CC4)cc13)C(Nc1ccc3c(c1)CC(=O)N3)CC2 (centres unmarked) [Example 29, 3-cyclopropyl-N-(2-fluoro-2-methylpropyl)-9-[(2-oxo-1,3-dihydroindol-5-yl)amino]-8,9-dihydro-7H-cyclopenta[h]isoquinoline-5-sulfonamide] | 100 to 2000
17 | Cc1nnc(-c2ccc(NC3CCc4cc(S(=O)(=O)NCC(C)(C)F)c5cc(C6CC6)ncc5c43)cn2)o1 (centres unmarked) [Example 76, 3-cyclopropyl-N-(2-fluoro-2-methylpropyl)-9-[[6-(5-methyl-1,3,4-oxadiazol-2-yl)pyridin-3-yl]amino]-8,9-dihydro-7H-cyclopenta[h]isoquinoline-5-sulfonamide] | 100 to 2000
18 | O=S(=O)(NC1CC(F)(F)C1)c1cc2c(c3cnc(C4CC4)cc13)CCC2n1cnnc1NCC1CC1 (centres unmarked) [Example 81, 3-cyclopropyl-7-[3-(cyclopropylmethylamino)-1,2,4-triazol-4-yl]-N-(3,3-difluorocyclobutyl)-8,9-dihydro-7H-cyclopenta[h]isoquinoline-5-sulfonamide] | 100 to 2000
19 | CC(C)(F)CNS(=O)(=O)c1cc2c(c3cnc(C4CC4)cc13)CCC2C(=O)O (centres unmarked) [Example 7, 3-cyclopropyl-5-[(2-fluoro-2-methylpropyl)sulfamoyl]-8,9-dihydro-7H-cyclopenta[h]isoquinoline-7-carboxylic Acid] | 100 to 2000
20 | Cn1c(NC2CCc3cc(S(=O)(=O)NCC(C)(C)F)c4cc(C5CC5)ncc4c32)nc2ccccc21 (centres unmarked) [Example 17, 3-cyclopropyl-N-(2-fluoro-2-methylpropyl)-9-[(1-methylbenzimidazol-2-yl)amino]-8,9-dihydro-7H-cyclopenta[h]isoquinoline-5-sulfonamide] | 100 to 2000
21 | CCNC1=NS(=O)(=O)N=C1NC1CCc2c1cc(S(=O)(=O)NCC(C)C)c1cc(C3CC3)ncc21 (centres unmarked) [Example 54, 3-cyclopropyl-7-[[4-(ethylamino)-1,1-dioxo-1,2,5-thiadiazol-3-yl]amino]-N-(2-methylpropyl)-8,9-dihydro-7H-cyclopenta[h]isoquinoline-5-sulfonamide] | 100 to 2000
22 | CC(C)(F)CNS(=O)(=O)c1cc2c(c3cnc(C4CC4)cc13)CC[C@@H]2NC(=O)c1cccnc1 (single isomer, unassigned) [Example 9, N-[(7R*)-3-cyclopropyl-5-[(2-fluoro-2-methylpropyl)sulfamoyl]-8,9-dihydro-7H-cyclopenta[h]isoquinolin-7-yl]pyridine-3-carboxamide] | 100 to 2000
23 | [2H]C([2H])(NS(=O)(=O)c1cc2c(c3cnc(C4CC4)cc13)CCC2N)C(C)C (centres unmarked) [Example 34, 7-amino-3-cyclopropyl-N-(1,1-dideuterio-2-methylpropyl)-8,9-dihydro-7H-cyclopenta[h]isoquinoline-5-sulfonamide] | 100 to 2000
24 | CC(C)CNS(=O)(=O)c1cc2c(c3cnc(C4CC4)cc13)CCC2NS(C)(=O)=O (centres unmarked) [Example 83, 3-cyclopropyl-7-(methanesulfonamido)-N-(2-methylpropyl)-8,9-dihydro-7H-cyclopenta[h]isoquinoline-5-sulfonamide] | 100 to 2000
25 | CC(C)(F)CNS(=O)(=O)c1cc2c(c3cnc(C4CC4)cc13)OCC2O (centres unmarked) [Example 36, 7-cyclopropyl-N-(2-fluoro-2-methylpropyl)-3-hydroxy-2,3-dihydrofuro[3,2-h]isoquinoline-5-sulfonamide] | 10 to 50
26 | CC(C)(F)CNS(=O)(=O)c1cc2c(c3cnc(C4CC4)cc13)[C@H](NC(=O)c1c[nH]c3cc(F)ccc13)CC2 (single isomer, unassigned) [Example 16, 6-fluoro-N-[(9R*)-3-cyclopropyl-5-[(2-fluoro-2-methylpropyl)sulfamoyl]-8,9-dihydro-7H-cyclopenta[h]isoquinolin-9-yl]-1H-indole-3-carboxamide] | 100 to 2000
27 | CC(C)CNS(=O)(=O)c1cc2c(c3cnc(C4CC4)cc13)C(Nc1nncn1-c1cncc(F)c1)CC2 (centres unmarked) [Example 5, 3-cyclopropyl-9-[[4-(5-fluoro-3-pyridyl)-1,2,4-triazol-3-yl]amino]-N-isobutyl-8,9-dihydro-7H-cyclopenta[h]isoquinoline-5-sulfonamide] | 100 to 2000
28 | CC(C)CNS(=O)(=O)c1cc2c(c3cnc(C4CC4)cc13)C(n1cnnc1Nc1cncc(F)c1)CC2 (centres unmarked) [Example 6, 3-cyclopropyl-9-[3-[(5-fluoro-3-pyridyl)amino]-1,2,4-triazol-4-yl]-N-isobutyl-8,9-dihydro-7H-cyclopenta[h]isoquinoline-5-sulfonamide] | 100 to 2000
29 | CC(C)CNS(=O)(=O)c1cc2c(c3cnc(C4CC4)cc13)C(Nc1nncn1-c1ccnn1C)CC2 (centres unmarked) [Example 3, 3-cyclopropyl-N-isobutyl-9-[[4-(2-methylpyrazol-3-yl)-1,2,4-triazol-3-yl]amino]-8,9-dihydro-7H-cyclopenta[h]isoquinoline-5-sulfonamide] | 100 to 2000
